Reference: ChEMBL document CHEMBL1201862, “PubChem BioAssay data set” (2004)
The source made the active and inactive calls.

Tests used:
Perilipin-1/ABHD5 = Perilipin-1/ABHD5 (Homo sapiens, UniProt O60240+Q8WTS1); assay: Luminescence-based biochemical high throughput dose response assay for inhibitors of the interaction of the lipase co-activator protein, abhydrolase domain containing 5 (ABHD5) with perilipin-1 (PLIN1) (2K validation set). [Related pubchem assays (depositor defined):AID493027, AID493057]
[1] = target: 1-acylglycerol-3-phosphate O-acyltransferase ABHD5/Perilipin-5 (Homo sapiens, UniProt Q00G26+Q8WTS1); assay: Luminescence-based biochemical high throughput dose response assay for inhibitors of the interaction of the lipase co-activator protein, abhydrolase domain containing 5 (ABHD5) with perilipin-5 (MLDP; PLIN5) (2K validation set). [Related pubchem assays (depositor defined):AID493035, AID493241]
[2] = target: Induced myeloid leukemia cell differentiation protein Mcl-1 (Homo sapiens, UniProt Q07820); assay type: functional
[3] = target: T1, Kappa-type opioid receptor (Homo sapiens, UniProt P41145); assay: SAR analysis of Antagonists of the Kappa Opioid Receptor (KOR) using an Image-Based Assay - Set 3. [Related pubchem assays (depositor defined):AID1777, AID1785]; assay type: functional
T1 sequence (P41145 whole entry): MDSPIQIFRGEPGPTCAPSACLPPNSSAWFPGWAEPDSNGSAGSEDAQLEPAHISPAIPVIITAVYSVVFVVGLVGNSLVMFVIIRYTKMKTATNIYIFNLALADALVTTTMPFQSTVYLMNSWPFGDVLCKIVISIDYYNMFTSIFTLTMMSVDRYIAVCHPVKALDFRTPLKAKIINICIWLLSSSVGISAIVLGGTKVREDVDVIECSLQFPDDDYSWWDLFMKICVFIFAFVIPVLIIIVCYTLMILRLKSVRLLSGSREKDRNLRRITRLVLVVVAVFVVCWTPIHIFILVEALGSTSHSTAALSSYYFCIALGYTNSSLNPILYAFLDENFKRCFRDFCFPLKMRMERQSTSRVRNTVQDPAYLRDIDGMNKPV

[4] = target: Delta-type opioid receptor (Homo sapiens, UniProt P41143); assay: SAR Analysis of Antagonists of the DOR Receptor using an Image-Based Assay - Set 3. [Related pubchem assays (depositor defined):AID1777, AID1785]; assay type: functional;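 note: U2OS cells expressing DOR1 and beta-arrestin GFP stimulated with 100 nM SNC80; imaging of GFP-tagged beta-arrestin moving into spots after receptor activation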
Mu-type opioid receptor = Mu-type opioid receptor (Homo sapiens, UniProt P35372); assay: SAR Analysis of Antagonists of the MOR Receptor using an Image-Based Assay - Set 3. [Related pubchem assays (depositor defined):AID1777, AID1785, AID1786, AID1966, AID2133, AID2136, AID2284, AID2285, AID2420]; assay type: functional
Sequence of Mu-type opioid receptor (P35372 whole entry): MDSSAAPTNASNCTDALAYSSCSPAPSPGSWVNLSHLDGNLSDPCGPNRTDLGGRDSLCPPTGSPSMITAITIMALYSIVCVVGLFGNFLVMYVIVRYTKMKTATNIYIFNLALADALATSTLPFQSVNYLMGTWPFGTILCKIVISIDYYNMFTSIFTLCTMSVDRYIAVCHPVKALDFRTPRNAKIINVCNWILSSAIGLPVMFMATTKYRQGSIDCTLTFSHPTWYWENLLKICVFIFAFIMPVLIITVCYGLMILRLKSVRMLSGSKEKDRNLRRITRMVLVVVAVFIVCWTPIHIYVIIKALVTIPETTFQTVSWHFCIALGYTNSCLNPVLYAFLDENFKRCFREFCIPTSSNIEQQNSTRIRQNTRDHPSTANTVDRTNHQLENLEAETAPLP

[5] = target: T1, Kappa-type opioid receptor; assay: SAR analysis of small molecule antagonists of the kappa opioid receptor via a luminescent beta-arrestin assay - Set 3. [Related pubchem assays (depositor defined):AID1777, AID1778, AID1785, AID1786, AID1966, AID2133, AID2136, AID2285, AID2495]; assay type: functional
[6] = Luminescence Cell-Based Dose Retest to Confirm Inhibitors of Cancer Stem Cells. [Related pubchem assays (depositor defined):AID2717, AID2721]; assay type: functional; conditions: Homo sapiens
Melanocortin receptor 4 = Melanocortin receptor 4 (Homo sapiens, UniProt P32245); assay type: functional, cell-based;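 note: Cell-based assay with luminescence read-out, confirmatory dose-response testing for agonist activity of biased ligands at MC4R; human U2OS cells with tagged receptor and beta-arrestin; potency of agonists that increase receptor coupling to beta-arrestin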
[7] = viability loss in HEK293 cells – cell-based, plate reader, cherry-picked samples, cytotoxicity control, dose response (AID 743446); assay type: functional
Integrin alpha-4 = Integrin alpha-4 (Homo sapiens, UniProt P13612); assay: allosteric modulators of alpha4 integrin VLA-4 – cell-based, LIBS antibody binding, flow cytometry, SAR follow-up (AID 488791); assay type: functional
[8] = blockers of bursicon-stimulated LGR2 cAMP reporter – cell-based, HEK293, CRE-luciferase reporter, cherry pick, set 2, dose response (AID 743343); assay type: functional;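 note: transfected cells were stimulated with diluted bursicon conditioned medium after compound addition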
[9] = toxicity toward HepG2 liver cells – cell-based, plate reader, cherry-pick, antagonist series, cytotoxicity control, dose response (AID 743416); assay type: functional
[10] = target: T2, Ubiquitin-conjugating enzyme E2 N (Homo sapiens, UniProt P61088); assay type: functional;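 note: Dose-response confirmation in a TR-FRET assay detecting UBC13-driven polyubiquitin chain formation, inhibition measured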
T2 sequence (P61088 whole entry): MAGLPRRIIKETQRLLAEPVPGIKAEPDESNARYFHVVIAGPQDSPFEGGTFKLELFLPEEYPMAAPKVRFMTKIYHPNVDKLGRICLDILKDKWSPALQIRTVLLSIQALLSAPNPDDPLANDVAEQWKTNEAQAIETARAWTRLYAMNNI

[11] = A549 cell cytotoxicity, dose response, cytotoxicity control, plate reader, cherry-pick, antagonist series (AID 743412); assay type: functional, cell-based
[12] = blockade of melanocortin 4 receptor signaling – cell-based, plate reader, cherry pick, counter-screen for LGR2 antagonist project, dose response (AID 743444); assay type: functional;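 note: transfected HEK 293 cells stimulated with alpha-MSH peptide; potency of inhibitors of the alpha-MSH evoked signal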
[13] = target: Dual specificity protein phosphatase 3 (Homo sapiens, UniProt P51452); assay: SAR VHR1 Fluorescent Assay for In Vitro dose response studies Set 2. [Related pubchem assays (depositor defined):AID1654, AID1661, AID1878]; assay type: functional
[14] = target: Tyrosine-protein phosphatase non-receptor type 7 (Homo sapiens, UniProt P35236); assay: SAR analysis of chemical inhibitors of HePTP using a Fluorescent assay - Set 2. [Related pubchem assays (depositor defined):AID1059, AID1077, AID1661, AID2085, AID521]; assay type: functional
[15] = target: T3, Voltage-gated N-type calcium channel alpha-1B subunit/Amyloid beta A4 precursor protein-binding family A member 1 (Homo sapiens, UniProt Q00975+Q02410); assay type: protein assay
T3 sequence (Q00975 whole entry): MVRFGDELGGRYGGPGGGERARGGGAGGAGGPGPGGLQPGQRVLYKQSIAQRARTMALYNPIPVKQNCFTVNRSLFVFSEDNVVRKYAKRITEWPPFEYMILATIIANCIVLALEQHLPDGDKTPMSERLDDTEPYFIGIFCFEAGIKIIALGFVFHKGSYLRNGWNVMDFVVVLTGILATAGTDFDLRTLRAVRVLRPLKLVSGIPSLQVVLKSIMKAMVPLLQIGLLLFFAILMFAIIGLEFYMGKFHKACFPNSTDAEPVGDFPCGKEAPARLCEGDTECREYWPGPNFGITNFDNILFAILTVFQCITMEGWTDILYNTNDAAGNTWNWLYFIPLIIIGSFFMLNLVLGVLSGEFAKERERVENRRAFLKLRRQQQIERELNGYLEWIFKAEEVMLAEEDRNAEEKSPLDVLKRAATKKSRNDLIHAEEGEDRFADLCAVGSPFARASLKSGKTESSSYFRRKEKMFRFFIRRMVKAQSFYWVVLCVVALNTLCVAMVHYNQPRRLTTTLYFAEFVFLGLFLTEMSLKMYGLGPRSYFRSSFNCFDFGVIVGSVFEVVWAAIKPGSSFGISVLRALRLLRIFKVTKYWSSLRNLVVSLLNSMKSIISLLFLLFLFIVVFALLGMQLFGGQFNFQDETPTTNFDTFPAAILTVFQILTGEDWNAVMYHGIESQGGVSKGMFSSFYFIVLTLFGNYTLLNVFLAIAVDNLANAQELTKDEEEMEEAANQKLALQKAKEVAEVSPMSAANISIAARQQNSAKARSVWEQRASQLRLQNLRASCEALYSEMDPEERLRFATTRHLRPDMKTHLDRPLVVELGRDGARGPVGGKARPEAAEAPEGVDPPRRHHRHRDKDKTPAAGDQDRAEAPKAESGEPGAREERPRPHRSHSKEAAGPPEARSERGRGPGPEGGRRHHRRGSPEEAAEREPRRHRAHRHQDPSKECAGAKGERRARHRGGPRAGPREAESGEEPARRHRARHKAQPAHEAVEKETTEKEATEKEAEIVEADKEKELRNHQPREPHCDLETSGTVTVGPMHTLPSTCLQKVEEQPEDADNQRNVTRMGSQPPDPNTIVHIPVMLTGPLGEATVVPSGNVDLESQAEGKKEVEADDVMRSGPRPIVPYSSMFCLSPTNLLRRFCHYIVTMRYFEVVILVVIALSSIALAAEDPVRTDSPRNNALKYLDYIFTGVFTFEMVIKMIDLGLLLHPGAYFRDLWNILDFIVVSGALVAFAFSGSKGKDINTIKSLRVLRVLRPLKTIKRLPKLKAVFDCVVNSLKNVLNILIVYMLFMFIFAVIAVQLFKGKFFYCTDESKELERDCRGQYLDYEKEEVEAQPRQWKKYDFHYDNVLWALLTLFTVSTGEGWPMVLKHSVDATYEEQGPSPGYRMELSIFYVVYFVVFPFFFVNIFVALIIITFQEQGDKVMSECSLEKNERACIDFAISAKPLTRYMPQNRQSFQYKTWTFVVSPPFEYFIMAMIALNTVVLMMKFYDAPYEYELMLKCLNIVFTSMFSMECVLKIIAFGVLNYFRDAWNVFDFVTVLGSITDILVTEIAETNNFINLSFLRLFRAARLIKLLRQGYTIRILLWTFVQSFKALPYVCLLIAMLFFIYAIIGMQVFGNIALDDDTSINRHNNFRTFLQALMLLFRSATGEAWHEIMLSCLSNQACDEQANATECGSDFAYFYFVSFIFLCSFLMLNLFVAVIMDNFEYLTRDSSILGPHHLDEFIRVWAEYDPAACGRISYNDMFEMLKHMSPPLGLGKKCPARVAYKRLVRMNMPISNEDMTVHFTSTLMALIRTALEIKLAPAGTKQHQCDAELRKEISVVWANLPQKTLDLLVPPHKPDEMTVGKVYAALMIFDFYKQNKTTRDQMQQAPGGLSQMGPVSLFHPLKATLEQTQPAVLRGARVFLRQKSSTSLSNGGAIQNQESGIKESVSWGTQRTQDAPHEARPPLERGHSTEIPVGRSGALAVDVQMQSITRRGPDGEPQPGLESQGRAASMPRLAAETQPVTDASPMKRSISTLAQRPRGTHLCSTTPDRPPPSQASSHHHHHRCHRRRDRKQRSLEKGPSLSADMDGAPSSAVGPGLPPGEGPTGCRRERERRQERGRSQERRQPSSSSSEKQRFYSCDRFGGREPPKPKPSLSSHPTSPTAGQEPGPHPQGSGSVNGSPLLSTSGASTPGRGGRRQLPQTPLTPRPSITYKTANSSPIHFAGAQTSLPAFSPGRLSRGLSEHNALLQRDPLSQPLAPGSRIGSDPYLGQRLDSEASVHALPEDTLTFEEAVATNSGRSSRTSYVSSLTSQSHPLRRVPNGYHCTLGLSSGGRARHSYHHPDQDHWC
T3 sequence (Q02410 whole entry): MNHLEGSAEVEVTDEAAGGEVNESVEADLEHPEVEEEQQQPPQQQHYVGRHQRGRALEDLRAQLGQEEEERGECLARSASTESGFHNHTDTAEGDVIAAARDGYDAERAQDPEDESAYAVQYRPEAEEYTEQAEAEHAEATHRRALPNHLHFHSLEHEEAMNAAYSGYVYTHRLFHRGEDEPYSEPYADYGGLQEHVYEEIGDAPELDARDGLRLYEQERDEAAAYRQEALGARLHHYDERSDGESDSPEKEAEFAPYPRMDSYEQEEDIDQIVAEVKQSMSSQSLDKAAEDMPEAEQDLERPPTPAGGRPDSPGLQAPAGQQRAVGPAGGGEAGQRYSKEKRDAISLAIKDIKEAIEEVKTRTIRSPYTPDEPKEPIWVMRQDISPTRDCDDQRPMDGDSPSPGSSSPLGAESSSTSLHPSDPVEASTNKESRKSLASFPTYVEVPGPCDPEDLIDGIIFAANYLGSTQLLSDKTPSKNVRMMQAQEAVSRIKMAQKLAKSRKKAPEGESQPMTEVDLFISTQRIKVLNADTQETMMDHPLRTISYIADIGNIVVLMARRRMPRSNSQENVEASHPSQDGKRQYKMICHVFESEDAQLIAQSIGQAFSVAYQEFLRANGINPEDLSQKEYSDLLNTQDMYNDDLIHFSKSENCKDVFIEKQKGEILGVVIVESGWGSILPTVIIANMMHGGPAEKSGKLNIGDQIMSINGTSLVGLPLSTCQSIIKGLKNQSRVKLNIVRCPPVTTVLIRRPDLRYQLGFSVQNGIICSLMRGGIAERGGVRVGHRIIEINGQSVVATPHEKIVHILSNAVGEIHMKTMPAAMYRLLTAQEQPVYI

[16] = target: Polyadenylate-binding protein 1 (Homo sapiens, UniProt P11940); assay: blockers of PABP interaction with poly(A) – biochemical, fluorescence polarization, […] (AID 2014)
Sequence of Polyadenylate-binding protein 1 (P11940 whole entry): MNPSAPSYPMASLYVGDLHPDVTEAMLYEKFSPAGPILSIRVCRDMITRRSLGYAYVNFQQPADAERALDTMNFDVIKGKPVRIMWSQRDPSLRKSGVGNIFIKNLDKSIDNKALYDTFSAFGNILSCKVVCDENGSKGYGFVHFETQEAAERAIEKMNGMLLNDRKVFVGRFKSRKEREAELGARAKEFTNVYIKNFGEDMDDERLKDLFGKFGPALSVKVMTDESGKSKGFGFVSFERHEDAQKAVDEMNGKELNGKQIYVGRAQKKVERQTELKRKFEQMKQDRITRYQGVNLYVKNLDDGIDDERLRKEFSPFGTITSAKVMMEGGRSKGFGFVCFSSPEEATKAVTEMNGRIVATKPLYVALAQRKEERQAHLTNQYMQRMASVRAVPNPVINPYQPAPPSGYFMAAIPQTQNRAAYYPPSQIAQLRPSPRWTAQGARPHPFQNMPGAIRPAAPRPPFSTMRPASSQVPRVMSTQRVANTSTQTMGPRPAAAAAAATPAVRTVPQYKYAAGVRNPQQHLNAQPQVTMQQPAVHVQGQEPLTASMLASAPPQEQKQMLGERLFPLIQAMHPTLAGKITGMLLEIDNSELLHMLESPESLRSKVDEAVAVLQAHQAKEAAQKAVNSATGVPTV

[17] = target: T3, Voltage-gated N-type calcium channel alpha-1B subunit/Amyloid beta A4 precursor protein-binding family A member 1; assay type: protein assay; remark: listed apart in the source
[18] = target: Eukaryotic translation initiation factor 4H (Homo sapiens, UniProt Q15056); assay: eIF4H binding inhibition – biochemical, uHTS, fluorescence polarization, translation initiation inhibitor project, primary screen (AID 2012)
T-cell = assay: loss of vesicle association with mouse CD8+ T cells – mouse 2C CD8+ T cells, flow cytometry, dose response (AID 485284); assay type: functional
[19] = target: Nucleotide-binding oligomerization domain-containing protein 2 (Homo sapiens, UniProt Q9HC29); assay: inhibition of NOD2-driven NF-kB reporter – cell-based, luminescence, uHTS, HEK293 (AID 1566); assay type: functional
HEK293 [20] = assay: inhibition of NOD1-driven NF-kB reporter – cell-based, luminescence, uHTS, primary screen (AID 1578); assay type: functional; conditions: Homo sapiens
HEK293 [21] = assay: cells; assay type: functional, cell-based; conditions: Homo sapiens
BJ [22] = assay: BJ-TERT-LT-ST fibroblast viability loss – cell-based, RAS-independent, luminescence, dose response (AID 1935); assay type: functional; conditions: Homo sapiens;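 note: BJ fibroblasts immortalized with TERT plus LT and ST oncogenes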
BJ [23] = assay: cells; assay type: functional, cell-based; conditions: Homo sapiens
[24] = HEK-293T viability loss after treatment – luminescence, T-cell screen hits, cytotoxicity control for TCR NF-kB inhibitor project, dose response (AID 489026); assay type: functional, cell-based;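 note: cells exposed to compound about 14 hours before the viability readout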
[25] = NIH-3T3 fibroblast cytotoxicity, dose response, cytotoxicity control, cell-based, fluorescence, Alamar Blue, secondary assay (AID 2327); assay type: functional;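 note: NIH-3T3 mouse fibroblasts cultured with fluconazole at 8 µg/mL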
[26] = Trypanosoma cruzi growth suppression in host cells – NIH3T3 host cells, beta-gal luminescence, confirmation (AID 2044); assay type: functional, cell-based;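 note: intracellular parasites grown in NIH/3T3 mouse fibroblasts as host cells; luminescent beta-galactosidase reporter signal from transgenic T. cruzi replicating inside host cells; inhibitors lower the luminescence signal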
[27] = DRD fibroblast viability loss – cell-based, non-viral oncogenic, luminescence, dose response (AID 1934); assay type: functional; conditions: Homo sapiens
Nonstructural protein 1 = Nonstructural protein 1 (Influenza A virus, UniProt Q194T2); assay type: functional, Influenza A virus (A/California/07/2009(H1N1))
HEK293 [28] = assay: cells; assay type: functional, cell-based; conditions: Homo sapiens; remark: listed apart in the source
[29] = NIH3T3 cell viability loss – ATP luminescence, mouse fibroblasts, counter-screen, dose response (AID 2010); assay type: functional, cell-based;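 note: cells exposed to compound for about 90 hours before reading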
Protein S100-A4 = Protein S100-A4 (Homo sapiens, UniProt P26447); assay: human S100A4 peptide interaction inhibition curves – biochemical, fluorescence polarization, cherry-picked hits, dose response (AID 687001); assay type: functional
Sequence of Protein S100-A4 (P26447 whole entry): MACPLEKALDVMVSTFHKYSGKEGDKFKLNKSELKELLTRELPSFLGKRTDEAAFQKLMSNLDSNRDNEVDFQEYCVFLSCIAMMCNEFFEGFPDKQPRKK

[30] = fluconazole-exposed Candida albicans growth modulators – fluorescence, retest, confirmation (AID 2467); assay type: functional, cell-based
[31] = target: G-protein coupled receptor 55 (Homo sapiens, UniProt Q9Y2T6); assay: selective activators of receptor GPR55 – imaging, U2OS cells, beta-arrestin-GFP redistribution, primary screen (AID 1961); assay type: functional
Sequence of G-protein coupled receptor 55 (Q9Y2T6 whole entry): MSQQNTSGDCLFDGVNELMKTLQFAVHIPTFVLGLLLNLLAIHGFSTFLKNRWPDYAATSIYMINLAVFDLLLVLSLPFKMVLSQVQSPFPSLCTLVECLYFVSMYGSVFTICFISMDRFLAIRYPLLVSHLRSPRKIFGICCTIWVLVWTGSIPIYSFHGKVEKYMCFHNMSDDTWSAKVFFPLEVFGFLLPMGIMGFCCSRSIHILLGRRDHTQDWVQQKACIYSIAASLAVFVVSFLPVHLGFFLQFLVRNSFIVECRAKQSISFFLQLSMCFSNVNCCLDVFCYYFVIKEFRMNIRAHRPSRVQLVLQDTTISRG

HEK293 [32] = assay: NOD2 signaling inhibitors in MDP-stimulated cells, cell-based, uHTS, luminescence (AID 2001); assay type: functional; conditions: Homo sapiens
BJ [33] = assay: BJ-TERT fibroblast viability loss – cell-based, RAS-independent, luminescence, dose response (AID 1933); assay type: functional; conditions: Homo sapiens
[34] = target: T4, Histone-lysine N-methyltransferase NSD2 (Homo sapiens, UniProt O96028); assay type: biochemical
T4 sequence (O96028 whole entry): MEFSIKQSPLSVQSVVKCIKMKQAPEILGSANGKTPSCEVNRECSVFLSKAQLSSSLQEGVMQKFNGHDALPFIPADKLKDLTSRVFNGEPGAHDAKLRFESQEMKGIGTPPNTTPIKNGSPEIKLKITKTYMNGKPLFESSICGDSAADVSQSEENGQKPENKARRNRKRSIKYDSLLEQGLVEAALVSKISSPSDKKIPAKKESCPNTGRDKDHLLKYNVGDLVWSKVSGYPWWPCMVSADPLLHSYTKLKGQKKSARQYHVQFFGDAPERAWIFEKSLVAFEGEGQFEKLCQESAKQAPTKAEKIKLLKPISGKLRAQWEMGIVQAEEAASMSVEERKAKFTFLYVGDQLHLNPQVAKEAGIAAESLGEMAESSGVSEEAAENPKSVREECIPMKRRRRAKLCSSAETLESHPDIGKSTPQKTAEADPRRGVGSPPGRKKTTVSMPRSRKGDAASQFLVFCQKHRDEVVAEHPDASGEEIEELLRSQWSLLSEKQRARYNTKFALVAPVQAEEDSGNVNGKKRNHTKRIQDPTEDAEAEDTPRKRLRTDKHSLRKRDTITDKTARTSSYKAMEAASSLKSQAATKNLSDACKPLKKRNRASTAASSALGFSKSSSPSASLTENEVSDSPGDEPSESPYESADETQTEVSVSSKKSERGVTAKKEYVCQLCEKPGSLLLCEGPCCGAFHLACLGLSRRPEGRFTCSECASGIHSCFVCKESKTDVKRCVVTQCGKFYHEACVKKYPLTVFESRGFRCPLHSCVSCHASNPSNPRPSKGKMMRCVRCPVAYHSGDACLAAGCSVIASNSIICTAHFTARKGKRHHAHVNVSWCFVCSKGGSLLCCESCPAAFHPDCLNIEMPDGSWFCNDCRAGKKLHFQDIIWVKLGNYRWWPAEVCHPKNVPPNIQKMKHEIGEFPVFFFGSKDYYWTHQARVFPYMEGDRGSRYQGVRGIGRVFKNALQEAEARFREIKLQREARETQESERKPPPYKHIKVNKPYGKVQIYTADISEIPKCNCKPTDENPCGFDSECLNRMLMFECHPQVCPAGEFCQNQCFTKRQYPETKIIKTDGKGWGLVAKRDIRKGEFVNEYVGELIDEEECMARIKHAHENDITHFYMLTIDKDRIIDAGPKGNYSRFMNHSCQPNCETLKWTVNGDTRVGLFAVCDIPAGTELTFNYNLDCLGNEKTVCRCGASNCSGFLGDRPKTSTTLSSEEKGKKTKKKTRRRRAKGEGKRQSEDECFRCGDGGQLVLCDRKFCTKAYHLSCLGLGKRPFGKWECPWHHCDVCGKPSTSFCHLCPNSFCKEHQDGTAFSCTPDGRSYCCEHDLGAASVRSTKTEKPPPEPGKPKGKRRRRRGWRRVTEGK

HEK293 [35] = assay: cells; assay type: functional, cell-based; conditions: Homo sapiens; remark: listed apart in the source

COC(=O)c1cc(-c2ccc(C)o2)nc2ccccc12
IC50 (Perilipin-1/ABHD5): 8.68 µM (active)
IC50 [1]: 8.7 µM (active)
IC50 [2]: 18 µM (active)

COc1ccc(S(=O)(=O)NCc2ccc(C(=O)NCCN(Cc3ccccc3)C(C)C)cc2)cc1
IC50 [3]: 0.806 µM (active)
IC50 [4]: > 32 µM (inactive)
IC50 (Mu-type opioid receptor): 9.6 µM (active)
IC50 [5]: 2.63 µM (active)

COc1cccc(-c2sc3ccccc3c2-c2ccc(OCCN(C)C)cc2)c1
AC50 [6]: 3.29 µM (active)
EC50 (Melanocortin receptor 4): > 3.3 µM (active)
AC50 [7]: 15.2 µM (active)
EC50 (Integrin alpha-4): 29.1 µM (active)
AC50 [8]: 13 µM (active)
AC50 [9]: 8.01 µM (active)
IC50 [10]: > 20 µM (inactive)
AC50 [11]: 7.82 µM (active)
AC50 [12]: 11.7 µM (active)

CC(C)(C)c1cc(C(=S)NCc2ccc(F)c(C(F)(F)F)c2)cc(C(C)(C)C)c1
IC50 [13]: 67.4 µM (active)
IC50 [14]: 27 µM (active)

CC(/C=C/c1ccco1)=N/NC(=O)Cc1cccs1
IC50 [15]: 24.6 µM (active)
IC50 [16]: > 100 µM (inactive)
IC50 [17]: 18.9 µM (active)
IC50 [18]: 23.6 µM (active)

Cc1ccc(/C=N/NC2=NC(=O)C(CC(=O)Nc3ccc(Cl)cc3)S2)o1 (stereo not drawn)
EC50 (T-cell): 15.2 µM (active)

CCN(CC)c1ccc(/C=C/c2ccc3ccc(OC)cc3[n+]2CC)cc1
EC50 [19]: 6.78 µM (active)
EC50 (HEK293 [20]): 3.64 µM (active)
IC50 (HEK293 [21]): 1.9 µM (active)
EC50 (BJ [22]): 0.892 µM (inconclusive)
EC50 (BJ [23]): 2.82 µM (active)
IC50 [24]: > 80 µM (inactive)
EC50 [25]: > 160 µM (inconclusive)
EC50 [26]: < 0.1 µM (active)
EC50 [27]: 2.25 µM (active)
IC50 (Nonstructural protein 1): 17.3 µM (active)
IC50 (HEK293 [28]): 9.34 µM (active)
EC50 [29]: 5.54 µM (active)
AC50 (Protein S100-A4): 1.12 µM (active)
EC50 [30]: < 0.03 µM (active)
EC50 [31]: > 32 µM (inactive)
IC50 (HEK293 [32]): 2.2 µM (active)
EC50 (BJ [33]): 0.732 µM (inconclusive)
EC50 (cells): 0.023 µM (active)
AC50 [34]: 17.4 µM (active)
IC50 (HEK293 [35]): > 20 µM (inactive)
